Consider one compound from patent US20070231269A1, “Analgesics” (IONIX PHARMACEUTICALS LIMITED, priority 2002, published 2007).

In general, solubility refers to how much of the substance goes into solution per volume. Low values mean a poorly soluble substance, high ones a readily soluble substance.

The data set in a line: Solubility of buprenorphine hydrochloride in pectin solutions (saturated solution, hplc). The settings on record: for solubility: 18 °C, thermodynamic from solid; for Buprenorphine detected: solubility, 20 mg/ml pectin, pH 3-6, 18° C., expressed as buprenorphine free base.

A value given as a limit tells only on which side of the number the result lay.

Regarding `CO[C@]12CCC3(C[C@@H]1[C@](C)(O)C(C)(C)C)[C@H]1Cc4ccc(O)c5c4[C@@]3(CCN1CC1CC1)[C@H]2O5` [Buprenorphine, 5α,7α(S)-17-(cyclopropylmethyl)-α-(1,1-dimethylethyl)-4,5-epoxy-18,19-dihydro-3-hydroxy-6-methoxy-α-methyl-6,14-ethenomorphinan-7-methanol], the solubility by setting is: (aqueous with cosolvent or surfactant or cyclodextrin) above 10000 µg/mL; (pH 4.5, aqueous with cosolvent or surfactant or cyclodextrin) below 10000 µg/mL. The Buprenorphine detected entry is recorded as “not affected significantly” (dextrose 0-50 mg/ml) and “not affected significantly” (mannitol 0-50 mg/ml).
